Experimental data taken from patent US20120101253A1, “STRUCTURED POLYCYCLIC PEPTIDE” (priority 2009, published 2012).
Read-outs that look alike come from different tables or passages of the source. Residues, ends and D or L forms follow the SMILES beside them.

Tests used:
human plasma kallikrein [1] = biological target: T1, human plasma kallikrein (Homo sapiens, UniProt P03952); settings: Heinis et al., 2009; cited from earlier work
T1 construct: purchased Innovative Research, Southfiled, USA

human plasma kallikrein [2] = biological target: T1, human plasma kallikrein; assay: Inhibition of human plasma kallikrein, fluorogenic substrate Z-Phe-Arg-AMC; format: biochemical; settings: for inhibition of human plasma kallikrein, fold weaker than parental inhibitor PK15: tricyclic peptides
Protocol: Fluorescence intensities were recorded for 1 hour with excitation and emission wavelengths of 355 nm and 460 nm on a fluorescence plate reader (Molecular Devices, Sunnyvale, USA).

[3] = biological target: T2, leucyl aminopeptidase from Aeromonas proteolytica (Vibrio proteolyticus, UniProt Q01693); assay: Aminopeptidase treatment of peptides (MALDI-TOF); format: in vitro ADME
T2 construct: purchased Sigma A8200
Protocol: Peptide 7 before (300 μM) and after (75 μM) MTGase treatment in reaction buffer was incubated with different amounts of leucyl aminopeptidase from Aeromonas proteolytica (EC 3.4.11.10; Sigma, A8200) (3 to 352 ng, corresponding to concentrations of about 50 nM to 6 μM) in a final volume of 2 μl for 30 min at RT. The mass of the peptides was determined by MALDI-TOF mass spectrometry.

MDM2 (res 2-125) = MDM2 (res 2-125) (Homo sapiens, UniProt Q00987); assay: Fluorescence anisotropy titration, binding to MDM2
Protocol: Titration experiments were run on a Horiba Jobin Yvon fluorimeter equipped with the Hamilton Microlab titrator controlled by laboratory software. […] The slit widths for excitation and emission were 5 nm and 15 nm and the integration time 10 s was used for each measurement. The intrinsic fluorescence of tryptophan in peptides 10, 48 was used to measure their binding affinity for MDM2 (res 2-125). The experiments were performed at 23C° in PBS, 5 mM DTT. Usually 250 μl of MDM2 (150 μM) was titrated into 1.2 ml of peptide (1 uM). Titration data were analyzed with a standard 1:1 binding model by using the quadratic solution to the equilibrium Kd=[A][B]/[AB]. […] The fitting equation contained an extra term to account for linear drift.

MDM2 peptide (res 2-125) = biological target: T3, MDM2 peptide (res 2-125) (Homo sapiens, UniProt Q00987); assay: Competition ELISA of PEP48 phage binding to MDM2; settings: TBMB conjugate
T3 construct: biotinylated MDM2 peptide (res 2-125) was immobilized on a streptavidin-coated plate
Excerpt: Phage was detected using an anti-M13-HRP monoclonal antibody (1:5000, Amersham).

[4] = IC50 Before MTGase cyclisation (bicyclic), bicyclic TBMB conjugates
[5] = IC50 After MTGase cyclisation (tricyclic), tricyclic peptides after MTGase treatment

T1 sequence (P03952 391-638 limits assumed): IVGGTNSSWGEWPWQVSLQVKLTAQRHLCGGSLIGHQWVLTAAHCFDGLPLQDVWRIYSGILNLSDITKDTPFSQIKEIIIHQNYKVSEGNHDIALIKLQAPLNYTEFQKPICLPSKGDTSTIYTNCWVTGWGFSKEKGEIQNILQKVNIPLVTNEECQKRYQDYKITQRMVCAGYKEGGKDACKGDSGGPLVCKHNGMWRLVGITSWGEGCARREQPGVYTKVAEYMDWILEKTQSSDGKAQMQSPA
T1 sequence (P03952 20-390 partner limits assumed): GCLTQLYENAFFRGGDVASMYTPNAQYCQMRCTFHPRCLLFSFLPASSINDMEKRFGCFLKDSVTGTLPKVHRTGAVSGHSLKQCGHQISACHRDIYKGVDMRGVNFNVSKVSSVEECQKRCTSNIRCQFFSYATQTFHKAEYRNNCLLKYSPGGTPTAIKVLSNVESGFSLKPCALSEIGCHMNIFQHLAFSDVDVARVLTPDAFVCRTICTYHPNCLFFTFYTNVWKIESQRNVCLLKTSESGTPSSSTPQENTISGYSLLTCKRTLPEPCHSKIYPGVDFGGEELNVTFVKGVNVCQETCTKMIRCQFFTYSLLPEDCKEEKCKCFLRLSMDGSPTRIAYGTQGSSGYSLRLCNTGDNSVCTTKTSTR
Sequence of MDM2 (res 2-125) (Q00987 2-125): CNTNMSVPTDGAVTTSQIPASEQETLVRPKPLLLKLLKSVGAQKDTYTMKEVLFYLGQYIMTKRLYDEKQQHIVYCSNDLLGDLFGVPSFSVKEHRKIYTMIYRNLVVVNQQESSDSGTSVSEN
T2 sequence (Q01693 107-405 limits assumed): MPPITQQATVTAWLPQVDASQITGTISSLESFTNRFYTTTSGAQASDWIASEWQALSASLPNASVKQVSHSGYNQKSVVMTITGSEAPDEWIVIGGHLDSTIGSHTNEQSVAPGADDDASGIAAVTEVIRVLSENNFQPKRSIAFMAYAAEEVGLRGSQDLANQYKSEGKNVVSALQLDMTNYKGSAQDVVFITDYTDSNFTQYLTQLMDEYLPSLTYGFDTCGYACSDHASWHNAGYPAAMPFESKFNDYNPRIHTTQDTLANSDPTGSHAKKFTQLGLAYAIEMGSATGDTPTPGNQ
T3 sequence (Q00987 2-125): as the sequence (Q00987 2-125) above

affinity of synthetic peptide for MDM2 (MDM2 (res 2-125))	Compound	IC50 (human plasma kallikrein [2]; [4]) [nM]	IC50 (human plasma kallikrein [2]; [5]) [nM]	inhibition of human plasma kallikrein, fold weaker than parental inhibitor PK15 (human plasma kallikrein [2])	further results
	[H][C@@]12CCCN1C(=O)[C@]1([H])CSCc3cc(cc(c3)CSC[C@@H](C(=O)NCC(N)=O)NC(=O)[C@H](CC(C)C)NC(=O)[C@H](C)NC(=O)[C@H](CCC(=O)O)NC(=O)[C@H](CC(=O)O)NC(=O)[C@H](C)NC2=O)CSC[C@H](NC(=O)[C@H](C)N)C(=O)N[C@@H](CO)C(=O)N[C@@H](CC(=O)O)C(=O)N[C@@H](CCCNC(=N)N)C(=O)N[C@@H](Cc2ccccc2)C(=O)N[C@@H](CCCNC(=N)N)C(=O)N[C@@H](CC(N)=O)C(=O)N1 [PK15, reference compound] (HELM PEPTIDE1{A.C.S.D.R.F.R.N.C.P.A.D.E.A.L.C.G.[am]}|CHEM1{[c1c(C[*:1])cc(C[*:3])cc1C[*:2]]}$PEPTIDE1,CHEM1,2:R3-1:R1|PEPTIDE1,CHEM1,9:R3-1:R2|PEPTIDE1,CHEM1,16:R3-1:R3$$$V2.0)	3			factor of activity reduction on C-terminal conjugation to a protein (human plasma kallikrein [1]): around 10
	CC(C)C[C@@H]1NC(=O)[C@H](C)NC(=O)[C@H](CCC(=O)O)NC(=O)[C@H](CC(=O)O)NC(=O)[C@H](C)NC(=O)[C@@H]2CCCN2C(=O)[C@@H]2CSCc3cc(cc(c3)CSC[C@@H](C(=O)N[C@@H](C)C(=O)N[C@@H](CCCCN)C(=O)N[C@@H](CO)C(N)=O)NC1=O)CSC[C@H](NC(=O)[C@H](C)NC(=O)[C@H](CCC(N)=O)NC(=O)[C@H](CC(C)C)NC(=O)[C@H](C)NC(=O)[C@@H](N)Cc1c[nH]c3ccccc13)C(=O)N[C@@H](CO)C(=O)N[C@@H](CC(=O)O)C(=O)N[C@@H](CCCNC(=N)N)C(=O)N[C@@H](Cc1ccccc1)C(=O)N[C@@H](CCCNC(=N)N)C(=O)N[C@@H](CC(N)=O)C(=O)N2 [peptide 8] (HELM PEPTIDE1{W.A.L.Q.A.C.S.D.R.F.R.N.C.P.A.D.E.A.L.C.A.K.S.[am]}|CHEM1{[c1c(C[*:1])cc(C[*:3])cc1C[*:2]]}$PEPTIDE1,CHEM1,6:R3-1:R1|PEPTIDE1,CHEM1,13:R3-1:R2|PEPTIDE1,CHEM1,20:R3-1:R3$$$V2.0)	185	196	about 70 fold	
	CC(C)C[C@H](NC(=O)[C@H](C)N)C(=O)N[C@@H](CCC(N)=O)C(=O)N[C@@H](C)C(=O)N[C@H]1CSCc2cc3cc(c2)CSC[C@H](NC(=O)[C@H](CC(N)=O)NC(=O)[C@H](CCCNC(=N)N)NC(=O)[C@H](Cc2ccccc2)NC(=O)[C@H](CCCNC(=N)N)NC(=O)[C@H](CC(=O)O)NC(=O)[C@H](CO)NC1=O)C(=O)N1CCC[C@H]1C(=O)N[C@@H](C)C(=O)N[C@@H](CC(=O)O)C(=O)N[C@@H](CCC(=O)O)C(=O)N[C@@H](C)C(=O)N[C@@H](CC(C)C)C(=O)N[C@H](C(=O)N[C@@H](C)C(=O)N[C@@H](CCCCN)C(=O)N[C@@H](CO)C(N)=O)CSC3 [peptide 7] (HELM PEPTIDE1{A.L.Q.A.C.S.D.R.F.R.N.C.P.A.D.E.A.L.C.A.K.S.[am]}|CHEM1{[c1c(C[*:1])cc(C[*:3])cc1C[*:2]]}$PEPTIDE1,CHEM1,5:R3-1:R1|PEPTIDE1,CHEM1,12:R3-1:R2|PEPTIDE1,CHEM1,19:R3-1:R3$$$V2.0)	259	200	about 70 fold	amount of exopeptidase at which exocyclic amino acids (Ala-Leu-Gln-Ala) were degraded ([3]; bicyclic peptide, 30 min at RT): ≥ 70 ng; exopeptidase needed to degrade the Gln-Ala dipeptide ([3]; tricyclic peptide, compared with bicyclic): higher exopeptidease concentrations were required
micromolar or better	H-SCVRFGWTCDNSWHGCKG-OH (cysteine pairing not given here) [PEP48, bicyclic peptide selected against MDM2]				Kd (MDM2 (res 2-125); entire bicyclic peptide, read-out: binding affinity (Kd) for MDM2): 500 to 800 nM; Kd (MDM2 (res 2-125); measured λex=280 nm, read-out: Kd, peptide + MDM2): 760 nM; Kd (MDM2 (res 2-125); measured λex=295 nm, read-out: Kd, peptide + MDM2): 567 nM; binding site on MDM2 by competition ELISA (MDM2 peptide (res 2-125)): bind to the same site as a linear peptide previously shown to block the p53-MDM2 interaction
micromolar or better	CC(C)C[C@@H]1NC(=O)[C@H](CCC(=O)O)NC(=O)[C@@H](NC(=O)[C@@H](N)CO)CSCc2cc3cc(c2)CSC[C@H](NC(=O)[C@H](CCCCN)NC(=O)[C@@H]2CCCN2C(=O)[C@H](CC(N)=O)NC(=O)[C@H](Cc2c[nH]c4ccccc24)NC1=O)C(=O)N[C@@H](CCCNC(=N)N)C(=O)N[C@@H](CC(C)C)C(=O)N[C@@H](CO)C(=O)N1CCC[C@H]1C(=O)N[C@@H](Cc1ccccc1)C(=O)N[C@@H](CCC(=O)O)C(=O)N[C@H](C(=O)N[C@@H](CCCCN)C(=O)NCC(=O)O)CSC3 [PEP10] (HELM PEPTIDE1{S.C.E.L.W.N.P.K.C.R.L.S.P.F.E.C.K.G}|CHEM1{[c1c(C[*:1])cc(C[*:3])cc1C[*:2]]}$PEPTIDE1,CHEM1,2:R3-1:R1|PEPTIDE1,CHEM1,9:R3-1:R2|PEPTIDE1,CHEM1,16:R3-1:R3$$$V2.0; bridges inferred)				
